Experimental data taken from PMC10290961 (European Journal of Medicinal Chemistry, 2023).

Tests used:
[1] = Transmission electron microscopy; format: physicochemical; details: for micelle formation (TEM): 50.0 μM, pH 7.4 phosphate buffer
[2] = for decomposition in SGF: 37 °C, within 120 min
[3] = Stability in GSH environment; format: physicochemical; details: 20 mM GSH, pH 7.4 phosphate buffer, 37 °C
AdV5 = format: cell-based, adenovirus (AdV) 5; details: A549 cells

## CCCCCCCCCCCCCCSSCCOP(=O)(O)CO[C@H](CO)Cn1ccc(N)nc1=O.N [Compound 1c, 2-(tetradecyldisulfanyl)ethyl hydrogen ((((S)-1-(4-amino-2-oxopyrimidin-1(2H)-yl)-3-hydroxypropan-2-yl)oxy)methyl)phosphonate]
[1]
  micelle formation (TEM): could form micelles
[2]; SGF pH 2.0, 37 °C, after 120 min
  remaining in SGF: approximately 77%
[3]; after 360 min
  remaining after incubation with GSH: approximately 13%
VACV
  fold TI relative to BCV: 2.8 fold

## CCCCCCCCCCCCCCCCSSCCOP(=O)(O)CO[C@H](CO)Cn1ccc(N)nc1=O.N [Compound 1d, 2-(hexadecyldisulfanyl)ethyl hydrogen ((((S)-1-(4-amino-2-oxopyrimidin-1(2H)-yl)-3-hydroxylpropan-2-yl)oxy)methyl)phosphonate]
[1]
  micelle formation (TEM): could form micelles
[3]
  stability in GSH environment relative to 1c: significant enhancement in stability

## CCCCCCCCCCCCCCCCCCSSCCOP(=O)(O)CO[C@H](CO)Cn1ccc(N)nc1=O.N [Compound 1e, 2-(octadecyldisulfanyl)ethyl hydrogen ((((S)-1-(4-amino-2-oxopyrimidin-1(2H)-yl)-3-hydroxypropan-2-yl)oxy)methyl)phosphonate]
[1]
  micelle formation (TEM): could form micelles
[1]; incubated for 4 h in GSH environment
  stability of micelles in GSH environment (TEM): could keep stable
[3]
  stability in GSH environment relative to 1c: significant enhancement in stability

## CCCCCCCCCCCCCCSSCCCOP(=O)(O)CO[C@H](CO)Cn1ccc(N)nc1=O.N [Compound 1h, 3-(tetradecyldisulfanyl)propyl hydrogen ((((S)-1-(4-amino-2-oxopyrimidin-1(2H)-yl)-3-hydroxypropan-2-yl)oxy)methyl)phosphonate]
[3]
  stability in GSH environment relative to 1c: significant enhancement in stability

## CCCCCCCCCCCCCCSSCCCCOP(=O)(O)CO[C@H](CO)Cn1ccc(N)nc1=O.N [Compound 1m, 4-(tetradecyldisulfanyl)butyl hydrogen ((((S)-1-(4-amino-2-oxopyrimidin-1(2H)-yl)-3-hydroxypropan-2-yl)oxy)methyl)phosphonate]
[3]
  stability in GSH environment relative to 1c: significant enhancement in stability

## CCCCCCCCCCCCCCCCSSCCCCOP(=O)(O)CO[C@H](CO)Cn1ccc(N)nc1=O.N [Compound 1n, 4-(hexadecyldisulfanyl)butyl hydrogen ((((S)-1-(4-amino-2-oxopyrimidin-1(2H)-yl)-3-hydroxypropan-2-yl)oxy)methyl)phosphonate]
[1]
  micelle formation (TEM): could form micelles
[2]
  decomposition in SGF: not decomposed

## CCCCCCCCSSCCCCCCOP(=O)(O)CO[C@H](CO)Cn1ccc(N)nc1=O.N [Compound 1o, 6-(octyldisulfanyl)hexyl hydrogen ((((S)-1-(4-amino-2-oxopyrimidin-1(2H)-yl)-3-hydroxypropan-2-yl)oxy)methyl)phosphonate]
VACV
  TI (therapeutic index, CC50/IC50): >4

## CCCCCCCCCCCCSSCCCCCCOP(=O)(O)CO[C@H](CO)Cn1ccc(N)nc1=O.N [Compound 1q, 6-(dodecyldisulfanyl)hexyl hydrogen ((((S)-1-(4-amino-2-oxopyrimidin-1(2H)-yl)-3-hydroxypropan-2-yl)oxy)methyl)phosphonate]
AdV5
  fold increase in TI value compared to BCV (anti-AdV5): 8.9 fold
[2]
  decomposition in SGF: not decomposed

## CCCCCCCCCCCCCCSSCCCCCCOP(=O)(O)CO[C@H](CO)Cn1ccc(N)nc1=O.N [Compound 1r, 6-(tetradecyldisulfanyl)hexyl hydrogen ((((S)-1-(4-amino-2-oxopyrimidin-1(2H)-yl)-3-hydroxypropan-2-yl)oxy)methyl)phosphonate]
[1]
  micelle formation (TEM): could form micelles
[3]
  stability in GSH environment relative to 1c: significant enhancement in stability
